Patent publication US8143424B2, “Thyroid like compounds” (Torrent Pharmaceuticals Ltd., priority 2007, dated 2012)

Assays:
[1] = tested on: C57BL6 mice fed High Fat Diet; assay: Food consumption in High Fat Diet fed mice; format: in vivo; conditions: Dose 11 μM/kg intraperitoneally, 7-15 days
Method: (§1) C57BL6 mice (14-18 weeks age), fed for 8-12 weeks with High Fat Diet (45% kcal fat) were used for the study. The mice were placed in individual housing for one week. The mice were then kept in oxymax cages for 48 h for acclimatization. Basal recordings of oxygen consumption and carbon dioxide production for each mouse were recorded with indirect open circuit calorimeter (Oxymax, Columbus Instruments, USA (Ling fu et al., Endocrinology (2004); 145 (6); 2591-3). On the basis of body weight and basal oxygen consumption, mice were randomized and divided into two groups. • I) Vehicle treated group • II) Test compound treated group
(§2) The mice were treated with vehicle and test compounds intraperitoneally for 7-15 days. On the day 8, Oxygen consumption was measured for individual mouse 30 min after the drug treatment and % change with respect to vehicle is calculated.
(§3) During the experiment food consumption was monitored daily. At the end of the experiment the animals were scarified and the heart weights were recorded.

[2] = tested on: C57BL6 mice fed High Fat Diet; assay: Oxygen consumption (Oxymax indirect calorimeter) in High Fat Diet fed mice; format: in vivo; conditions: Dose 11 μM/kg intraperitoneally, day 8, % change vs vehicle; for change in vivo at 11 µM, 11 µmol/kg: Mus musculus, ip, 192 h, read-out: increase in O2 cons
Method: as §1, §2

THR β1 = target: T1, THR β1 (Homo sapiens, UniProt P10828); assay: Thyroid β1 transactivation (TRE reporter, luciferase) in COS7 cells; format: cell-based; conditions: Conc. 20 uM, 24 hours, vs vehicle control
T1 construct: GAL4 (plasmid pGAL4); expressed in transfected cells; host or cells: COS7
T1 sequence (P10828 1-461): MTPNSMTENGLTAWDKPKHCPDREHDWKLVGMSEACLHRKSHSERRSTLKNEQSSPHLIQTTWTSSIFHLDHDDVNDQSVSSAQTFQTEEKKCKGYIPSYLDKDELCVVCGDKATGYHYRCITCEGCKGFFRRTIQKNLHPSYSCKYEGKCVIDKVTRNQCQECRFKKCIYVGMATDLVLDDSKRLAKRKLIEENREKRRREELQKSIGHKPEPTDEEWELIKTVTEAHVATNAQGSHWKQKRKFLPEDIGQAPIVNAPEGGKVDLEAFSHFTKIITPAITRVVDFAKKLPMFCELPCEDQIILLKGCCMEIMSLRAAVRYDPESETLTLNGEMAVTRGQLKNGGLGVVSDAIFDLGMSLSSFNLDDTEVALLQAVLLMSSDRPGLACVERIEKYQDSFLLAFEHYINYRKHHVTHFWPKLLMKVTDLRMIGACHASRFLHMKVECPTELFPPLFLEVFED
Method: (§4) Compounds of the present invention were tested for their effect on O2 consumption (metabolic effect), LDL cholesterol, glucose levels, insulin levels and food consumption (appetite stimulant) and also to assess transcriptional activity of thyroid hormone receptor by in vitro TRE (Thyroid receptor element) reporter assay for TRα1 and TRβ1.
(§5) COS7 cells were transiently transfected with pGAL4 […]/Thyroid α1 or pGAL4/Thyroid β1 and pLuc Pur. The cells were cotransfected with pLacZNorm for normalization of transfection efficiency. Transfected cells were then treated with different concentrations of compounds of present invention, vehicle for 24 hours.
(§6) Cells were the lysed and luciferase activity was monitored in all samples. Results were expressed as fold activation as compared to vehicle control.
(§7) Results: Thyroid(α1/β1) transactivation in COS7 cells.

THR α1 = target: T2, THR α1 (Homo sapiens, UniProt P10827); assay: Thyroid α1 transactivation (TRE reporter, luciferase) in COS7 cells; format: cell-based; conditions: Conc. 20 uM, 24 hours, vs vehicle control
T2 construct: GAL4 (plasmid pGAL4); expressed in transfected cells; host or cells: COS7
T2 sequence (P10827 1-410 isoform P10827-2): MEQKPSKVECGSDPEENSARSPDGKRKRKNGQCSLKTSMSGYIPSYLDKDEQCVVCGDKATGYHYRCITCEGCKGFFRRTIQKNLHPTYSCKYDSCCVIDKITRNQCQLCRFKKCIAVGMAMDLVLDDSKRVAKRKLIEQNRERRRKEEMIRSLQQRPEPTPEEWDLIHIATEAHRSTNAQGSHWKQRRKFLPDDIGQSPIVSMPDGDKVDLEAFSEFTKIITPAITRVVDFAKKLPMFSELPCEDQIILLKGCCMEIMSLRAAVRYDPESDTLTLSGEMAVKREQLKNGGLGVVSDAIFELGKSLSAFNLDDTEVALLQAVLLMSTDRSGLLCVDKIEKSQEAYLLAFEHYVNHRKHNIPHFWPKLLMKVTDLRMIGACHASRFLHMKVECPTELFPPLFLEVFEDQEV
Method: as §4, §5, §6, §7

[3] = tested on: C57BL6 mice fed High Fat Diet; assay: Heart weight in High Fat Diet fed mice; format: in vivo; conditions: Dose 11 μM/kg intraperitoneally, end of experiment
Method: as §1, §2, §3

Compound	increase in food consumption with reference to vehicle [1]	change in vivo at 11 µM, 11 µmol/kg [2] [%]	β1 Fold Activation (THR β1) [Fold]	α1 Fold Activation (THR α1) [Fold]	increase in Heart weight with reference to vehicle [3]	increase in O2 cons [2]
Cc1nn(CCC(=O)O)c(C)c1Cc1ccc2[nH]ccc2c1 [Compound 2, 3-[4-(1H-Indol-5-ylmethyl)-3,5-dimethyl-pyrazol-1-yl]-propionic acid]	No change	< 5	1	1	No change	–
Cc1nn(CCC(=O)O)c(C)c1Oc1ccc(O)c2c1CCC2 [Compound 1, 3-[4-(7-Hydroxy-indan-4-yloxy)-3,5-dimethyl-pyrazol-1-yl]-propionic acid]	No change	< 5	1	1	No change	–
CCc1nn(CCC(=O)O)c(CC)c1Cc1cc(C)c(O)c2c1CCC2 [Compound 20, 3-[3,5-Diethyl-4-(7-hydroxy-6-methyl-indan-4-ylmethyl)-pyrazol-1-yl]-propionic acid]	No change	> 5	–	–	No change	–
3-[4-(7-Hydroxy-indan-4-yloxy)-3-thiophen-2-yl-pyrazol-1-yl]-propionic acid And 3-[4-(7-Hydroxy-indan-4-yloxy)-5-thiophen-2-yl-pyrazol-1-yl]-propionic acid [Compound 7]	No change	–	–	–	No change	** (** = Increase > 5%)
Cc1nn(Cc2nnn[nH]2)c(C)c1Oc1ccc(O)c2c1CCC2 [Compound 3, 7-[3,5-Dimethyl-1-(1H-tetrazol-5-ylmethyl)-1H-pyrazol-4-yloxy]-indan-4-ol]	No change	> 5	1	1	No change	–
7-[1-(1H-Tetrazol-5-ylmethyl)-3-thiophen-2-yl-1H-pyrazol-4-yloxy]-indan-4-ol And 7-[1-(1H-Tetrazol-5-ylmethyl)-5-thiophen-2-yl-1H-pyrazol-4-yloxy]-indan-4-ol [Compound 8]	No change	–	1	3	No change	** (** = Increase > 5%)
Cc1nn(CC(=O)Nc2nnn[nH]2)c(C)c1Oc1ccc(O)c2c1CCC2 [Compound 6, 2-[4-(7-Hydroxy-indan-4-yloxy)-3,5-dimethyl-pyrazol-1-yl]-N-(1H-tetrazol-5-yl)-acetamide]	No change	< 5	–	–	No change	–
CCc1nn(CC(=O)O)c(CC)c1Cc1cc(C)c(O)c2c1CCC2 [Compound 19, [3,5-Diethyl-4-(7-hydroxy-6-methyl-indan-4-ylmethyl)-pyrazol-1-yl]-acetic acid]	No change	> 5	–	–	No change	–
Cc1cc(Cc2c(C)nn(CCC(=O)O)c2C)c2c(c1O)CCC2 [Compound 9, 3-[4-(7-Hydroxy-6-methyl-indan-4-ylmethyl)-3,5-dimethyl-pyrazol-1-yl]-propionic acid]	No change	> 5	2	2.5	No change	–
COc1c(C)cc(Cc2c(C)nn(CCC(=O)O)c2C)c2c1CCC2 [Compound 14, 3-[4-(7-Methoxy-6-methyl-indan-4-ylmethyl)-3,5-dimethyl-pyrazol-1-yl]-propionic acid]	No change	< 5	–	–	No change	–
